These results are taken from BindingDB's records for doi:10.1016/j.bmcl.2003.08.049 (Merck Research Laboratories, 2003).

pIC50: −log10 of the molar value.

The assay addresses T1, Dimer of Gag-Pol polyprotein [489-587,Q496K] (Human immunodeficiency virus 1, UniProt P12497, Q496K).
T1 construct: 489-587
Kind of assay: Protease Inhibition Assay. The note with it: pH 5.5; 30 °C. How it is done:
Assay of HIV protease inhibition was performed by peptide cleavage using the substrate Val-Ser-Gln-Asn-beta-naphthylalanine*Pro-Ile-Val. Products of the cleavage reaction were quantified by HPLC detection, and data were fit to nonlinear least squares equations for determination of steady-state Michaelis-Menten kinetics.

On to `O=C(N[C@H]1c2ccccc2OC[C@H]1O)[C@H](Cc1cccnc1)C[C@H](O)CN1CCN(Cc2ccc(-c3ccccc3)o2)C[C@H]1C(=O)NCC(F)(F)F` [(2S)-1-[(2S,4R)-2-hydroxy-4-{[(3S,4S)-3-hydroxy-3,4-dihydro-2H-1-benzopyran-4-yl]carbamoyl}-4-(pyridin-3-ylmethyl)butyl]-4-[(5-phenylfuran-2-yl)methyl]-N-(2,2,2-trifluoroethyl)piperazine-2-carboxamide], for which the pIC50 is 10.70.

The pIC50 is −log10 of the IC50, conventionally taken in molar units.
